What follows are compounds tested on ileal fluid dependant organism (IFDO).
Assay type: cell-based
For Oc1ccc(Cl)cc1Cc1ccccc1 [o-Benzyl-p-chlorophenol], the “Log10 Reduction of Colonies” value was 4.7 and the “efficacy of LpH phenols tested at equivocal concentrations” value (“efficacy of LpH phenols tested” for short) was “optimal”.
Cc1ccc(O)cc1 [p-Cresol] was tested, and the “Log10 Reduction of Colonies” value was 3.7.
With Oc1ccccc1-c1ccccc1 [o-Phenylphenol] the “Log10 Reduction of Colonies” value was 4.8 and the “efficacy of LpH phenols tested” value was “optimal”.
Oc1cc(Cl)c(Cl)cc1Cl [2,4,5-Trichlorophenol] was tested, and the “Log10 Reduction of Colonies” value was 4.9.
With Cc1cccc(O)c1C [2,3-Dimethylphenol] the “Log10 Reduction of Colonies” value was 4.1.
For Oc1c(Cl)cc(Cl)c(Cl)c1Cc1c(O)c(Cl)cc(Cl)c1Cl [Hexachlorophene], the “Log10 Reduction of Colonies” value was 3.6.
With Oc1ccccc1 [Phenol] the “Log10 Reduction of Colonies” value was 3.6.
With CCC(C)(C)c1ccc(O)cc1 [PTAP, p-tertiary-amylphenol] the “efficacy of LpH phenols tested” value was “less effective”.
For Oc1cc(Cl)ccc1Oc1ccc(Cl)cc1Cl [Triclosan], the “Log10 Reduction of Colonies” value was 2.7.
In the case of Cc1cc(O)ccc1Cl [p-Chloro-m-cresol], the “Log10 Reduction of Colonies” value is reported as 4.3.
In the case of Oc1ccc(Cl)cc1Cc1cc(Cl)ccc1O [2,2-Methylenebis(4-chlorophenol)], the “Log10 Reduction of Colonies” value is reported as 3.8.
Cc1ccc(C(C)C)c(O)c1 [Thymol] was tested, and the “Log10 Reduction of Colonies” value was 3.2.
